Several values for one entry are separate records, joined by “and”; a condition that tells them apart may be missing. Identical values can stand only once. Inconclusive results and toxic doses are left out.
Test system: BDF1 mice, B16 melanoma ip, median survival T/C
Assay: NCI In Vivo Anticancer Drug Screen. Data for tumor model B16 Melanoma (intraperitoneal) in B6D2F1 (BDF1) mice
Details: endpoint: median survival time, higher = longer survival
How it was run: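 Transplantable tumor model; survival or tumor size measured; reported as T/C, treated over vehicle control.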

[1] = dose: 3.12 mg/kg/injection, schedule: Q01DX009 (ip), vehicle: Klucel (hydroxypropylcellulose) (HPC)
[2] = dose: 6.25 mg/kg/injection, schedule: Q01DX009 (ip), vehicle: Klucel (hydroxypropylcellulose) (HPC)
[3] = dose: 6.25 mg/kg/injection, schedule: Q01DX009 (ip), vehicle: saline with Tween-80
[4] = dose: 12.5 mg/kg/injection, schedule: Q01DX009 (ip), vehicle: Klucel (hydroxypropylcellulose) (HPC)
[5] = dose: 12.5 mg/kg/injection, schedule: Q01DX009 (ip), vehicle: saline with Tween-80
[6] = dose: 12.5 mg/kg/injection, schedule: Q01DX009 (ip), vehicle: saline
[7] = dose: 25.0 mg/kg/injection, schedule: Q01DX009 (ip), vehicle: saline
[8] = dose: 50.0 mg/kg/injection, schedule: Q01DX009 (ip), vehicle: Klucel (hydroxypropylcellulose) (HPC)
[9] = dose: 25.0 mg/kg/injection, schedule: Q01DX009 (ip), vehicle: saline with Tween-80
[10] = dose: 50.0 mg/kg/injection, schedule: Q01DX009 (ip), vehicle: saline with Tween-80
[11] = dose: 100.0 mg/kg/injection, schedule: Q01DX009 (ip), vehicle: saline with Tween-80
[12] = dose: 200.0 mg/kg/injection, schedule: Q01DX009 (ip), vehicle: saline with Tween-80

Cc1nc2ccccc2nc1CBr
T/C (dose: 0.4 mg/kg/injection, schedule: Q01DX009 (ip), vehicle: saline with Tween-80): 104 % of control
T/C (dose: 0.8 mg/kg/injection, schedule: Q01DX009 (ip), vehicle: saline with Tween-80): 104 % of control
T/C (dose: 0.8 mg/kg/injection, schedule: Q01DX009 (ip), vehicle: saline): 95 % of control
T/C (dose: 1.6 mg/kg/injection, schedule: Q01DX009 (ip), vehicle: Klucel (hydroxypropylcellulose) (HPC)): 93 % of control
T/C (dose: 1.6 mg/kg/injection, schedule: Q01DX009 (ip), vehicle: saline): 93 % of control
T/C [1]: 100 % of control
T/C (dose: 3.2 mg/kg/injection, schedule: Q01DX009 (ip), vehicle: saline with Tween-80): 119 % of control
T/C (dose: 3.2 mg/kg/injection, schedule: Q01DX009 (ip), vehicle: saline): 95 % of control
T/C [2]: 87 % of control
T/C [3]: 113 % of control
T/C (dose: 6.3 mg/kg/injection, schedule: Q01DX009 (ip), vehicle: saline): 102 % of control
T/C [4]: 96 % of control
T/C [5]: 108 % of control

O=C1c2ccccc2C(=O)c2c(NCCNCCO)ccc(O)c21
T/C (dose: 2.5 mg/kg/injection, schedule: Q01DX009 (ip), vehicle: suspension in saline): 110 % of control
T/C (dose: 5.0 mg/kg/injection, schedule: Q01DX009 (ip), vehicle: suspension in saline): 119 % of control
T/C (dose: 10.0 mg/kg/injection, schedule: Q01DX009 (ip), vehicle: suspension in saline): 119 % of control
T/C (dose: 20.0 mg/kg/injection, schedule: Q01DX009 (ip), vehicle: suspension in saline): 171 % of control
T/C (dose: 80.0 mg/kg/injection, schedule: Q01DX009 (ip), vehicle: suspension in saline): 181 % of control

Nc1ccc2nc3ccc(=O)cc-3n(-c3ccccc3)c2c1
T/C (dose: 0.5 mg/kg/injection, schedule: Q01DX009 (ip), vehicle: saline): 109 % of control
T/C (dose: 1.0 mg/kg/injection, schedule: Q01DX009 (ip), vehicle: saline): 104 % of control
T/C (dose: 2.5 mg/kg/injection, schedule: Q01DX009 (ip), vehicle: saline): 111 % of control
T/C (dose: 5.0 mg/kg/injection, schedule: Q01DX009 (ip), vehicle: saline): 104 % of control
T/C (dose: 10.0 mg/kg/injection, schedule: Q01DX009 (ip), vehicle: saline): 104 % of control

Nc1[nH]c(=O)nc2nc[nH]c12
T/C [6]: 108 % of control
T/C [7]: 94 % of control
T/C (dose: 50.0 mg/kg/injection, schedule: Q01DX009 (ip), vehicle: saline): 89 % of control

C[C@@H]1C[C@H]2[C@@H]3CCC4=CC(=O)C=C[C@]4(C)[C@@]3(F)[C@@H](O)C[C@]2(C)[C@@]1(O)C(=O)CO
T/C [1]: 114 % of control
T/C [2]: 107 % of control
T/C [4]: 114 % of control
T/C (dose: 25.0 mg/kg/injection, schedule: Q01DX009 (ip), vehicle: Klucel (hydroxypropylcellulose) (HPC)): 107 % of control
T/C [8]: 115 % of control

COc1ccc([I+]c2ccc(OC)cc2)cc1
T/C (dose: 0.75 mg/kg/injection, schedule: Q01DX009 (ip), vehicle: saline with Tween-80): 95 % of control
T/C (dose: 1.5 mg/kg/injection, schedule: Q01DX009 (ip), vehicle: saline with Tween-80): 95 % of control
T/C (dose: 3.0 mg/kg/injection, schedule: Q01DX009 (ip), vehicle: saline with Tween-80): 100 % of control

N[C@H](C(=O)O)[C@H]1ON=C(Cl)[C@@H]1O
T/C (dose: 4.0 mg/kg/injection, schedule: Q01DX009 (ip), vehicle: saline): 90 % of control
T/C (dose: 8.0 mg/kg/injection, schedule: Q01DX009 (ip), vehicle: saline): 94 % of control
T/C (dose: 16.0 mg/kg/injection, schedule: Q01DX009 (ip), vehicle: saline): 103 % of control
T/C (dose: 32.0 mg/kg/injection, schedule: Q01DX009 (ip), vehicle: saline): 106 % of control
T/C (dose: 64.0 mg/kg/injection, schedule: Q01DX009 (ip), vehicle: saline): 102 % of control and 115 % of control
T/C (dose: 128.0 mg/kg/injection, schedule: Q01DX009 (ip), vehicle: saline): 101 % of control
T/C (dose: 256.0 mg/kg/injection, schedule: Q01DX009 (ip), vehicle: saline): 107 % of control
T/C (dose: 512.0 mg/kg/injection, schedule: Q01DX009 (ip), vehicle: saline): 109 % of control

CC1(C)OC2OC(COC(=O)c3ccccc3)C(=O)C2O1 (stereo not drawn)
T/C [9]: 94 % of control
T/C [10]: 97 % of control
T/C [11]: 93 % of control
T/C (dose: 400.0 mg/kg/injection, schedule: Q01DX009 (ip), vehicle: saline with Tween-80): 88 % of control

CC(CN1CCN(C)CC1)CN1c2ccccc2Sc2ccc(C(F)(F)F)cc21 (stereo not drawn)
T/C (dose: 1.56 mg/kg/injection, schedule: Q01DX009 (ip), vehicle: saline): 110 % of control
T/C (dose: 3.12 mg/kg/injection, schedule: Q01DX009 (ip), vehicle: saline): 110 % of control
T/C (dose: 6.25 mg/kg/injection, schedule: Q01DX009 (ip), vehicle: saline): 123 % of control
T/C [6]: 107 % of control

COC(=O)c1cc([N+](=O)[O-])cc2ccccc12
T/C [8]: 100 % of control
T/C (dose: 100.0 mg/kg/injection, schedule: Q01DX009 (ip), vehicle: Klucel (hydroxypropylcellulose) (HPC)): 97 % of control
T/C (dose: 200.0 mg/kg/injection, schedule: Q01DX009 (ip), vehicle: Klucel (hydroxypropylcellulose) (HPC)): 94 % of control

COc1cc2ccc3cnccc3c2cc1OC
T/C (dose: 25.0 mg/kg/injection, schedule: Q01DX009 (ip), vehicle: water): 99 % of control
T/C (dose: 50.0 mg/kg/injection, schedule: Q01DX009 (ip), vehicle: water): 91 % of control
T/C (dose: 100.0 mg/kg/injection, schedule: Q01DX009 (ip), vehicle: water): 98 % of control
T/C (dose: 200.0 mg/kg/injection, schedule: Q01DX009 (ip), vehicle: water): 88 % of control

O=CNC(CSSCC(NC=O)C(=O)O)C(=O)O (stereo not drawn)
T/C [11]: 93 % of control
T/C [12]: 95 % of control

CC12CCC(O)CC1CCC1C2CCC2(C)C(c3ccc(=O)oc3)C(O)C3OC132 (stereo not drawn)
T/C (dose: 0.94 mg/kg/injection, schedule: Q01DX009 (ip), vehicle: Klucel (hydroxypropylcellulose) (HPC)): 103 % of control
T/C (dose: 1.87 mg/kg/injection, schedule: Q01DX009 (ip), vehicle: Klucel (hydroxypropylcellulose) (HPC)): 98 % of control
T/C (dose: 3.5 mg/kg/injection, schedule: Q01DX009 (ip), vehicle: Klucel (hydroxypropylcellulose) (HPC)): 94 % of control

O=C(O)C(O)C(O)C(=O)O.O=C(O)C(O)C(O)C(=O)O.[O]=[V].[O]=[V] (stereo not drawn)
T/C [6]: 94 % of control
T/C (dose: 12.5 mg/kg/injection, schedule: Q04DX003 (ip), vehicle: saline): 100 % of control
T/C [7]: 87 % of control
T/C (dose: 25.0 mg/kg/injection, schedule: Q04DX003 (ip), vehicle: saline): 100 % of control
T/C (dose: 50.0 mg/kg/injection, schedule: Q04DX003 (ip), vehicle: saline): 86 % of control

CCC(C)C(NC(=O)OC(C)(C)c1ccc(-c2ccccc2)cc1)C(=O)O (stereo not drawn)
T/C [10]: 94 % of control
T/C [11]: 94 % of control
T/C [12]: 91 % of control

N#Cc1ccc(C(=O)C=C(C(F)(F)F)C(F)(F)F)cc1
T/C (dose: 1.56 mg/kg/injection, schedule: Q01DX009 (ip), vehicle: saline with Tween-80): 99 % of control
T/C (dose: 3.12 mg/kg/injection, schedule: Q01DX009 (ip), vehicle: saline with Tween-80): 100 % of control
T/C [3]: 99 % of control
T/C [5]: 93 % of control

Cc1ccc(Cl)cc1N=Cc1ccccc1O
T/C (dose: 100.0 mg/kg/injection, schedule: Q04DX003 (ip), vehicle: saline with Tween-80): 104 % of control
T/C (dose: 200.0 mg/kg/injection, schedule: Q04DX003 (ip), vehicle: saline with Tween-80): 100 % of control
T/C (dose: 400.0 mg/kg/injection, schedule: Q04DX003 (ip), vehicle: saline with Tween-80): 104 % of control

CN(C)N=Nc1ccc(S(=O)(=O)Nc2ncccn2)cc1
T/C [5]: 108 % of control
T/C (dose: 14.7 mg/kg/injection, schedule: Q01DX009 (ip), vehicle: saline with Tween-80): 110 % of control
T/C (dose: 22.0 mg/kg/injection, schedule: Q01DX009 (ip), vehicle: saline with Tween-80): 116 % of control
T/C [9]: 123 % of control
T/C (dose: 33.0 mg/kg/injection, schedule: Q01DX009 (ip), vehicle: saline with Tween-80): 106 % of control and 123 % of control
T/C (dose: 75.0 mg/kg/injection, schedule: Q01DX009 (ip), vehicle: saline with Tween-80): 115 % of control

Source: PubChem BioAssay AID192 (DTP/NCI, 2004)
